Measured values as given in patent publication US6821980B1, “Substituted 5-benzyl-2,4-diaminopyrimidines” (Basilea Pharmaceutica AG, priority 1999, dated 2004).
Values after ≈ are worked out from the molar mass of the structure shown. Like-named read-outs stand apart in the source and are kept apart here.

What was measured:
[1] = system: Staphylococcus aureus 101; experiment: MIC against Staphylococcus aureus 101; format: cell-based; settings: Table 2, Staphylococcus aureus 101, MRSA- and trimethoprim-resistant, clinical isolate; for MIC: read-out: MIC Sa101
[2] = target: T1, purified DHFR of strain Sp1/1 of Streptococcus pneumoniae (Streptococcus pneumoniae serotype 4, UniProt Q54801); format: biochemical; settings: Table 2; IC50 against purified DHFR of strain Sp1/1
T1 sequence (Q54801 1-168 I100L): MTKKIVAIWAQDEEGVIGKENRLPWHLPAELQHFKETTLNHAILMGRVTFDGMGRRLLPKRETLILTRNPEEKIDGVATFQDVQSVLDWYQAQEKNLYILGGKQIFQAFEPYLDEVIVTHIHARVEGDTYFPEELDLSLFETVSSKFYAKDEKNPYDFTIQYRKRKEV

[3] = system: Streptococcus pneumoniae 1/1; experiment: MIC against Streptococcus pneumoniae 1/1; format: cell-based; settings: Table 2, Streptococcus pneumoniae 1/1, trimethoprim- and penicillin-resistant, serotype 6, clinical isolate; for MIC: read-out: MIC Sp1/1
[4] = target: purified DHFR of strain 157/4696 of Staphylococcus aureus (Staphylococcus aureus, UniProt P13955); experiment: biochemical
Sequence of purified DHFR of strain 157/4696 of Staphylococcus aureus (P13955 whole entry): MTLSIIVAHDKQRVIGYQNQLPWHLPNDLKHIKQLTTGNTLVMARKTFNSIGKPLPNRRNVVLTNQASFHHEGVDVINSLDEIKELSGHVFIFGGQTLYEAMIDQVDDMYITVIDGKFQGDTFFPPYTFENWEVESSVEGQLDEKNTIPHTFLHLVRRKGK

`CCOc1cc(Cc2cnc(N)nc2N)cc(OCC)c1-c1ccc(COCC(=O)N2CCOCC2)s1` [Example 03-a, 2-[5-[4-(2,4-Diamino-pyrimidin-5-ylmethyl)-2,6-diethoxy-phenyl]-thiophen-2-ylmethoxyl]-1-morpholin-4-yl-ethanone] gave an MIC [1] of 8 µg/mL (≈ 15.2 µM), an IC50 [2] of 31 nM and an MIC [3] of 2 µg/mL (≈ 3.79 µM). The IC50 [4] was 1800 nM.

Compound `CCOc1cc(Cc2cnc(N)nc2N)cc(OCC)c1-c1ccc(COCC(=O)N2CCSCC2)s1` [Example 03-b, 2-[5-[4-(2,4-Diamino-pyrimidin-5-ylmethyl)-2,6-diethoxy-phenyl]-thiophen-2-ylmethoxy]-1-thiomorpholin-4-yl-ethanone] has an MIC [1] of 8 µg/mL (≈ 14.7 µM), an IC50 [2] of 19 nM and an MIC [3] of 2 µg/mL (≈ 3.68 µM). For the same compound, the IC50 [4] was 1600 nM.

Work on `CCOc1cc(Cc2cnc(N)nc2N)cc(OCC)c1-c1ccc(COCC(=O)N2CCCCC2)s1` [Example 03-c, 2-[5-[4-(2,4-Diamino-pyrimidin-5-ylmethyl)-2,6-diethoxy-phenyl]-thionhen-2-ylmethoxy]-1-piperidin-1-yl-ethanone] yielded an MIC [1] of 8 µg/mL (≈ 15.2 µM), an IC50 [2] of 11 nM and an MIC [3] of 2 µg/mL (≈ 3.8 µM). It also gave an IC50 [4] of 2000 nM.

In the case of `CCOc1cc(Cc2cnc(N)nc2N)cc(OCC)c1-c1cc(C)nc(C)c1` [Example 03-d, 5-[4-(2,6-Dimethyl-pyridin-4-yl)-3,5-diethoxy-benzyl]-pyrimidine-2,4-diamine], the MIC [1] is reported as 8 µg/mL (≈ 20.3 µM), the IC50 [2] is reported as 340 nM and the MIC [3] is reported as 8 µg/mL (≈ 20.3 µM). The IC50 [4] was 6000 nM.

`CCOc1cc(Cc2cnc(N)nc2N)cc(OCC)c1-c1ccc(SC)nc1` [Example 03-e, 5-[3,5-Diethoxy-4-(6-methylsulphanyl-pyridin-3-yl)-benzyl]-pyrimidine-2,4-diamine] gave an MIC [1] of 8 µg/mL (≈ 19.4 µM), an IC50 [2] of 80 nM and an MIC [3] of 4 µg/mL (≈ 9.72 µM). It also gave an IC50 [4] of 2100 nM.

With `CCOc1cc(Cc2cnc(N)nc2N)cc(OCC)c1-c1ccc(C#N)cc1` [Example 04-a, 4′-(2,4-Diamino-pyrimidin-5-ylmethyl)-2′,6′-diethoxy-biphenyl-4-carbonitrile] the MIC [1] was 8 µg/mL (≈ 20.5 µM), the IC50 [2] was 82 nM and the MIC [3] was 4 µg/mL (≈ 10.3 µM). The IC50 [4] was 2700 nM.

In the case of `CCOc1cc(Cc2cnc(N)nc2N)cc(OCC)c1-c1ccc(CN2CCCC2)c(F)c1` [Example 04-aa, 5-(2,6-Diethoxy-3′-fluoro-4′-pyrrolidin-1-ylmethyl-biphenyl-4-ylmethyl)-pyrimidine-2,4-diamine], the MIC [1] is reported as 8 µg/mL (≈ 17.2 µM), the IC50 [2] is reported as 330 nM and the MIC [3] is reported as 8 µg/mL (≈ 17.2 µM). The IC50 [4] was 1800 nM.

`CCOc1cc(Cc2cnc(N)nc2N)cc(OCC)c1-c1ccc(NC)cc1` [Example 04-ab, 5-(2,6-Diethoxy-4′-methylamino-biphenyl-4-ylmethyl)-pyrimidine-2,4-diamine] was tested, and the MIC [1] was 8 µg/mL (≈ 20.3 µM), the IC50 [2] was 120 nM and the MIC [3] was 4 µg/mL (≈ 10.2 µM). It also gave an IC50 [4] of 1400 nM.

In the case of `CCOc1cc(Cc2cnc(N)nc2N)cc(OCC)c1-c1ccc(CN(C)CCF)cc1` [Example 04-ac, 5-(2,6-Diethoxy-4′-{[N-(2-fluoro-ethyl)-N-methyl-amino]-methyl}-biphenyl-4-ylmethyl)-pyrimidine-2,4-diamine], the MIC [1] is reported as 8 µg/mL (≈ 17.6 µM), the IC50 [2] is reported as 59 nM and the MIC [3] is reported as 4 µg/mL (≈ 8.82 µM). It also gave an IC50 [4] of 450 nM.

`CCOc1cc(Cc2cnc(N)nc2N)cc(OCC)c1-c1ccc(CN(C)CCF)c(F)c1` [Example 04-ad, 5-(2,6-Diethoxy-3′-fluoro-4′-{[N-(2-fluoro-ethyl)-N-methyl-amino]-methyl}-biphenyl-4-ylmethyl)-pyrimidine-2,4-diamine] was tested, and the MIC [1] was 8 µg/mL (≈ 17 µM), the IC50 [2] was 170 nM and the MIC [3] was 4 µg/mL (≈ 8.48 µM). It also gave an IC50 [4] of 2700 nM.

`CCOc1cc(Cc2cnc(N)nc2N)cc(OCC)c1-c1cc(C)cc(N)c1` [Example 04-ae, 5-(5′-Amino-2,6-diethoxy-3′-methyl-biphenyl-4-ylmethyl)-pyrimidine-2,4-diamine] was tested, and the MIC [1] was 8 µg/mL (≈ 20.3 µM), the IC50 [2] was 19 nM and the MIC [3] was 8 µg/mL (≈ 20.3 µM). For the same compound, the IC50 [4] was 1400 nM.

Compound `CCOc1cc(Cc2cnc(N)nc2N)cc(OCC)c1-c1ccc(CNCCF)cc1` [Example 04-ag, 5-{2,6-Diethoxy-4′-[(2-fluoro-ethylamino)-methyl]-biphenyl-4-ylmethyl}-pyrimidine-2,4-diamine] has an MIC [1] of 8 µg/mL (≈ 18.2 µM), an IC50 [2] of 350 nM and an MIC [3] of 8 µg/mL (≈ 18.2 µM). The IC50 [4] was 1800 nM.

For `CCOc1cc(Cc2cnc(N)nc2N)cc(OCC)c1-c1ccc(NS(C)(=O)=O)cc1` [Example 04-b, N-[4′-(2,4-Diamino-pyrimidin-5-ylmethyl)-2′,6′-diethoxy-biphenyl-4-yl]-methanesulphonamide], the MIC [1] was 8 µg/mL (≈ 17.5 µM), the IC50 [2] was 36 nM and the MIC [3] was 2 µg/mL (≈ 4.37 µM). For the same compound, the IC50 [4] was 1700 nM.

`CCOc1cc(Cc2cnc(N)nc2N)cc(OCC)c1-c1ccc(N)cc1` [Example 04-c, 5-(4′-Amino-2,6-diethoxy-biphenyl-4-ylmethyl)-pyrimidine-2 4-diamine] gave an MIC [1] of 8 µg/mL (≈ 21.1 µM), an IC50 [2] of 40 nM and an MIC [3] of 4 µg/mL (≈ 10.5 µM). It also gave an IC50 [4] of 700 nM.

With `CCOc1cc(Cc2cnc(N)nc2N)cc(OCC)c1-c1ccc(CN2CCOCC2)nc1` [Example 04-d, 5-[3,5-Diethoxy-4-(6-morpholin-4-ylmethyl-pyridin-3-yl)-benzyl]-pyrimidine-2,4-diamine] the MIC [1] was 8 µg/mL (≈ 17.2 µM), the IC50 [2] was 65 nM and the MIC [3] was 4 µg/mL (≈ 8.61 µM). It also gave an IC50 [4] of 2100 nM.

Work on `CCOc1cc(Cc2cnc(N)nc2N)cc(OCC)c1-c1ccc(NC(C)=O)c(C)c1` [Example 04-e, N-[4′-(2,4-Diamino-pyrimidin-5-ylmethyl)-2′,6′-diethoxy-3-methyl-biphenyl-4yl]-acetamide] yielded an MIC [1] of 8 µg/mL (≈ 18.4 µM), an IC50 [2] of 30 nM and an MIC [3] of 4 µg/mL (≈ 9.18 µM). For the same compound, the IC50 [4] was 1800 nM.

Compound `CCOc1cc(Cc2cnc(N)nc2N)cc(OCC)c1-c1ccc(N)c(C)c1` [Example 04-f, 5-(4′-Amino-2,6-diethoxy-3′-methyl-biphenyl-4ylmethyl)-pyximidine-2,4-diamine] has an MIC [1] of 4 µg/mL (≈ 10.2 µM), an IC50 [2] of 55 nM and an MIC [3] of 2 µg/mL (≈ 5.08 µM). The IC50 [4] was 1500 nM.

In the case of `CCOc1cc(Cc2cnc(N)nc2N)cc(OCC)c1-c1ccc(NC(=O)CN2CCOCC2)cc1` [Example 04-g, N-[4′-(2,4-Diamino-pyrimidin-5-ylmethyl)-2′,6′-diethoxy-biphenyl-4-yl]-2-morpholin-4-yl-acetamide], the MIC [1] is reported as 8 µg/mL (≈ 15.8 µM), the IC50 [2] is reported as 40 nM and the MIC [3] is reported as 4 µg/mL (≈ 7.9 µM). It also gave an IC50 [4] of 1100 nM.

`CCOc1cc(Cc2cnc(N)nc2N)cc(OCC)c1-c1ccc(N)c(C#N)c1` [Example 04-h, 4-Amino-4′-(2,4-diamino-pyrimidin-5-ylmethyl)-2′,6′diethoxy-biphenyl-3-carbonitrile] showed an MIC [1] of 4 µg/mL (≈ 9.89 µM), an IC50 [2] of 42 nM and an MIC [3] of 2 µg/mL (≈ 4.94 µM). For the same compound, the IC50 [4] was 1000 nM.

Work on `CCOc1cc(Cc2cnc(N)nc2N)cc(OCC)c1-c1ccc(OC)c(N)c1` [Example 04-i, 5-(3′-Amino-2,6-diethoxy-4′-methoxy-biphenyl-4-ylmethyl)-pyrimidine-2,4-diamine] yielded an MIC [1] of 8 µg/mL (≈ 19.5 µM), an IC50 [2] of 43 nM and an MIC [3] of 4 µg/mL (≈ 9.77 µM). The IC50 [4] was 1200 nM.

For `CCOc1cc(Cc2cnc(N)nc2N)cc(OCC)c1-c1ccc(CN2CCOCC2)c(N)c1` [Example 04-j, 5-(3′-Amino-2,6-diethoxy-4′-morpholino-4-ylmethy-biphenyl)-pyrimidine-2,4-diamine], the “MIC Sa101” value [1] was 8 µg/mL (≈ 16.7 µM), the IC50 [2] was 48 nM and the “MIC Sp1/1” value [3] was 4 µg/mL (≈ 8.36 µM). The IC50 ([4]; Table 2, IC50 against purified DHFR of strain 157/4696 (highly trimethoprim-resistant; clinical isolate), read-out: DHFR Sa1) was 850 nM.

`CCOc1cc(Cc2cnc(N)nc2N)cc(OCC)c1-c1cnc(N2CCOCC2)nc1` [Example 04-k, 5-[3,5-Diethoxy-4-(2-morpholin-4-yl-pyrimidin-5-yl)-benzyl]-pyrimidine-2,4-diamine] was tested, and the MIC [1] was 8 µg/mL (≈ 17.7 µM), the IC50 [2] was 95 nM and the MIC [3] was 4 µg/mL (≈ 8.86 µM). It also gave an IC50 [4] of 10000 nM.

For `CCOc1cc(Cc2cnc(N)nc2N)cc(OCC)c1-c1ccc(N)c(OC)c1` [Example 04-l, 5-(4′-Amino-2,6-diethoxy-3′-methoxy-biphenyl-4-ylmethyl)-pyrimidine-2,4-diamine], the MIC [1] was 8 µg/mL (≈ 19.5 µM), the IC50 [2] was 82 nM and the MIC [3] was 4 µg/mL (≈ 9.77 µM). It also gave an IC50 [4] of 1900 nM.

For `CCOc1cc(Cc2cnc(N)nc2N)cc(OCC)c1-c1ccc2ncccc2c1` [Example 04-m, 5-(3,5-Diethoxy-4-quinolin-6-yl-benzyl)-pyrimidine-2,4-diamine], the MIC [1] was 8 µg/mL (≈ 19.3 µM), the IC50 [2] was 72 nM and the MIC [3] was 8 µg/mL (≈ 19.3 µM). For the same compound, the IC50 [4] was 1800 nM.

`CCOc1cc(Cc2cnc(N)nc2N)cc(OCC)c1-c1ccc(F)c(N)c1` [Example 04-n, 5-(3′-Amino-2,6-diethozy-4′-fluoro-biphenyl-4-ylmethyl)-pyrimidine-2,4-diamine] showed an MIC [1] of 8 µg/mL (≈ 20.1 µM), an IC50 [2] of 68 nM and an MIC [3] of 2 µg/mL (≈ 5.03 µM). The IC50 [4] was 1400 nM.

With `CCOc1cc(Cc2cnc(N)nc2N)cc(OCC)c1-c1ccc(S(N)(=O)=O)cc1` [Example 04-o, 4′-(2,4-Diamino-gyrimidin-5-ylmethyl)-2′,6′-diethoxy-biphenyl-4-sulphonic acid amide] the MIC [1] was 8 µg/mL (≈ 18 µM), the IC50 [2] was 60 nM and the MIC [3] was 8 µg/mL (≈ 18 µM). The IC50 [4] was 1300 nM.

Work on `CCOc1cc(Cc2cnc(N)nc2N)cc(OCC)c1-c1ccc(N)nc1` [Example 04-q, 5-[4-(6-Amino-pyridin-3-yl)-3,5-diethoxy-benzyl]-pyrimidine-2,4-diamine] yielded an MIC [1] of 8 µg/mL (≈ 21 µM), an IC50 [2] of 69 nM and an MIC [3] of 4 µg/mL (≈ 10.5 µM). The IC50 [4] was 1900 nM.

`CCOc1cc(Cc2cnc(N)nc2N)cc(OCC)c1-c1ccc(N)c(F)c1` [Example 04-r, 5-(4′-Amino-2,6-diethoxy-3′-fluoro-biphenyl-4-3dmethyl)-Ryrimidine-2,4-diamine] gave an MIC [1] of 8 µg/mL (≈ 20.1 µM), an IC50 [2] of 85 nM and an MIC [3] of 4 µg/mL (≈ 10.1 µM). The IC50 [4] was 3200 nM.
